Source: publication PMC11766267 (International Journal of Molecular Sciences, 2025)

Legend:
[1] = MTT cytotoxicity assay, normal cell line WI-38; format: cell-based, human; details: human, WI-38 cells (normal human lung fibroblasts), normal (non-cancer) cell line, 24 h treatment
Experimental: (§1) Subsequently, 100 µL of dimethyl sulfoxide was introduced to dissolve the insoluble formazan.

HCT-116 = assay: MTT cytotoxicity assay, HCT-116; format: cell-based; details: Homo sapiens, 24 h treatment, mean ± SD of triplicate
Experimental: as §1

MCF-7 [2] = assay: MTT cytotoxicity assay, MCF-7; format: cell-based, human; details: 24 h treatment, mean ± SD of triplicate
Experimental: as §1

HeLa = assay: MTT cytotoxicity assay, HeLa; format: cell-based; details: Homo sapiens, 24 h treatment, mean ± SD of triplicate
Experimental: as §1

[3] = system: HCT-116, MDA-MB-231, HeLa, and MCF-7; assay: MTT cytotoxicity assay, ranges stated over several cell lines; format: cell-based; details: Homo sapiens, HCT-116, MDA-MB-231, HeLa, MCF-7; range; read-out: IC50 values, range over the cancer cell lines tested
Experimental: as §1

MDA-MB-231 = assay: MTT cytotoxicity assay, MDA-MB-231; format: cell-based; details: Homo sapiens, 24 h treatment, mean ± SD of triplicate
Experimental: as §1

MCF-7 [4] = assay: In vitro anti-estrogenic activity assay, MCF-7
MCF-7a = assay: In vitro anti-estrogenic activity assay, MCF-7a
[5] = cell count relative to the control (17β-E2)

Molecule `CCOc1ccc(/C=C/C(=O)c2ccccc2)cc1` [Compound 4f, (E)-3-(4-Ethoxyphenyl)-1-phenylprop-2-en-1-one] has an IC50 at 24 h [1] of 64.7 ± 3.6 µM, an IC50 (HCT-116) of 57.6 ± 3.3 µM and an IC50 (MCF-7 [2]; Homo sapiens, MCF7, 24 h) of 35.3 ± 2.1 µM. The IC50 (HeLa) was 49.6 ± 2.8 µM, the IC50 [3] was 23.5 to 74.5 µM and the IC50 (MDA-MB-231) was 46.1 ± 2.4 µM.
For `O=C(/C=C/c1ccccc1OCc1ccccc1)c1ccccc1` [Compound 4g, (E)-3-(2-(Benzyloxy)phenyl)-1-phenylprop-2-en-1-one], the IC50 at 24 h [1] was 27.8 ± 1.9 µM, the IC50 (HCT-116) was 54 ± 3 µM and the IC50 (MCF-7 [2]; Homo sapiens, MCF7, 24 h) was 48.4 ± 2.6 µM. For the same molecule, the IC50 (HeLa) was 36.5 ± 2.4 µM, the IC50 [3] was 23.5 to 74.5 µM and the IC50 (MDA-MB-231) was 59.2 ± 3.5 µM.
For `O=C(/C=C/c1cccc(OCc2ccccc2)c1)c1ccccc1` [Compound 4h, (E)-3-(3-(Benzyloxy)phenyl)-1-phenylprop-2-en-1-one], the IC50 at 24 h [1] was 83.4 ± 4.2 µM, the IC50 (HCT-116) was 46.8 ± 2.7 µM and the IC50 (MCF-7 [2]; Homo sapiens, MCF7, 24 h) was 42.1 ± 2.4 µM. The IC50 (HeLa) was 25.6 ± 1.8 µM, the IC50 [3] was 23.5 to 74.5 µM and the IC50 (MDA-MB-231) was 53.8 ± 3.3 µM.
In the case of `O=C(/C=C/c1ccc(OCc2ccccc2)cc1)c1ccccc1` [Compound 4i, (E)-3-(4-(Benzyloxy)phenyl)-1-phenylprop-2-en-1-one], the IC50 at 24 h [1] is reported as > 100 µM, the IC50 (HCT-116) is reported as > 100 µM and the IC50 (MCF-7 [2]) is reported as 85.5 ± 4.3 µM. The IC50 (MCF-7 [2]; Homo sapiens, MCF7, 24 h) was > 100 µM, the IC50 (HeLa) was > 100 µM and the IC50 (MDA-MB-231) was > 100 µM.
Molecule `COc1cccc(C(=O)/C=C/c2ccccc2)c1` [Compound 4j, (E)-1-(3-Methoxyphenyl)-3-phenylprop-2-en-1-one] has an IC50 at 24 h [1] of 78.2 ± 3.9 µM, an IC50 (HCT-116) of 24.6 ± 1.7 µM and an IC50 (MCF-7 [2]; Homo sapiens, MCF7, 24 h) of 18.8 ± 1.5 µM. The IC50 (HeLa) was 34.9 ± 2.2 µM and the IC50 (MDA-MB-231) was 29.3 ± 1.9 µM.
With `COc1cccc(C(=O)/C=C/c2ccc(Cl)cc2)c1` [Compound 4k, (E)-3-(4-Chlorophenyl)-1-(3-methoxyphenyl)prop-2-en-1-one] the IC50 at 24 h [1] was > 100 µM, the IC50 (HCT-116) was > 100 µM and the IC50 (MCF-7 [2]; Homo sapiens, MCF7, 24 h) was > 100 µM. The IC50 (HeLa) was > 100 µM and the IC50 (MDA-MB-231) was > 100 µM.
Work on `COc1ccc(/C=C/C(=O)c2cccc(OC)c2)cc1` [Compound 4l, (E)-1-(3-Methoxyphenyl)-3-(4-methoxyphenyl) prop-2-en-1-one] yielded an IC50 at 24 h [1] of 16.2 ± 1.3 µM, an IC50 (HCT-116) of 84 ± 4.2 µM and an IC50 (MCF-7 [2]; Homo sapiens, MCF7, 24 h) of 75.4 ± 3.8 µM. The IC50 (HeLa) was 88.8 ± 4.6 µM, the IC50 [3] was 61.9 to 91.7 µM and the IC50 (MDA-MB-231) was 91.7 ± 4.5 µM.
Molecule `COc1ccc(C(=O)/C=C/c2ccccc2)cc1` [Compound 4m, (E)-1-(4-Methoxyphenyl)-3-phenylprop-2-en-1-one] has an IC50 at 24 h [1] of 87.6 ± 4.6 µM, an IC50 (HCT-116) of 59.6 ± 3.5 µM and an IC50 (MCF-7 [2]; Homo sapiens, MCF7, 24 h) of 33 ± 2 µM. It also gave an IC50 (HeLa) of 63.6 ± 3.7 µM, an IC50 [3] of 23.5 to 74.5 µM and an IC50 (MDA-MB-231) of 45.9 ± 2.6 µM.
In the case of `COc1ccc(C(=O)/C=C/c2ccc(Cl)cc2)cc1` [Compound 4n, (E)-3-(4-Chlorophenyl)-1-(4-methoxyphenyl)prop-2-en-1-one], the IC50 at 24 h [1] is reported as 61.5 ± 3.4 µM, the IC50 (HCT-116) is reported as 66.1 ± 3.8 µM and the IC50 (MCF-7 [2]; Homo sapiens, MCF7, 24 h) is reported as 37 ± 2.3 µM. The IC50 (HeLa) was 74.5 ± 3.9 µM, the IC50 [3] was 23.5 to 74.5 µM and the IC50 (MDA-MB-231) was 48.6 ± 2.8 µM.
In the case of `COc1ccc(/C=C/C(=O)c2ccc(OC)cc2)cc1` [Compound 4o, (E)-1,3-bis(4-Methoxyphenyl)prop-2-en-1-one], the IC50 at 24 h [1] is reported as 24.2 ± 1.7 µM, the IC50 (HCT-116) is reported as 89.2 ± 4.5 µM and the IC50 (MCF-7 [2]; Homo sapiens, MCF7, 24 h) is reported as 61.9 ± 3.4 µM. For the same molecule, the IC50 (HeLa) was > 100 µM, the IC50 [3] was 61.9 to 91.7 µM and the IC50 (MDA-MB-231) was 73.5 ± 4 µM.
With `COc1cccc(C(=O)/C=C/c2cccc(OCc3ccccc3)c2)c1` [Compound 4p, (E)-3-(3-(Benzyloxy)phenyl)-1-(3-methoxyphenyl)prop-2-en-1-one] the IC50 at 24 h [1] was 92.1 ± 4.9 µM, the IC50 (HCT-116) was 39.8 ± 2.4 µM and the IC50 (MCF-7 [2]; Homo sapiens, MCF7, 24 h) was 57.1 ± 3.2 µM. The IC50 (HeLa) was 45.2 ± 2.4 µM, the IC50 [3] was 23.5 to 74.5 µM and the IC50 (MDA-MB-231) was 68.4 ± 3.7 µM.
In the case of `COc1ccc(C(=O)/C=C/c2cccc(OCc3ccccc3)c2)cc1` [Compound 4r, (E)-3-(3-(Benzyloxy)phenyl)-1-(4-methoxyphenyl)prop-2-en-1-one], the IC50 at 24 h [1] is reported as > 100 µM, the IC50 (HCT-116) is reported as 62.6 ± 3.7 µM and the IC50 (MCF-7 [2]; Homo sapiens, MCF7, 24 h) is reported as 39.3 ± 2.4 µM. For the same molecule, the IC50 (HeLa) was 57 ± 3.2 µM, the IC50 [3] was 23.5 to 74.5 µM and the IC50 (MDA-MB-231) was 51.8 ± 2.9 µM.
Molecule `COc1ccc(C(=O)/C=C/c2ccc(OCc3ccccc3)cc2)cc1` [Compound 4s, (E)-3-(4-(Benzyloxy)phenyl)-1-(4-methoxyphenyl)prop-2-en-1-one] has an IC50 at 24 h [1] of 22.3 ± 1.6 µM, an IC50 (HCT-116) of 73.5 ± 3.9 µM and an IC50 (MCF-7 [2]; Homo sapiens, MCF7, 24 h) of 64.2 ± 3.5 µM. For the same molecule, the IC50 (HeLa) was 87 ± 4.3 µM, the IC50 [3] was 61.9 to 91.7 µM and the IC50 (MDA-MB-231) was 82.4 ± 4.1 µM.
In the case of `C[C@]12CC[C@@H]3c4ccc(O)cc4CC[C@H]3[C@@H]1CC[C@@H]2O` [Compound 17β-E2, 17β estradiol, reference compound], the “Cell Proliferation MCF-7 %” value (MCF-7 [4]; [5]) is reported as 100%, the “Cell Proliferation MCF-7 Cell Count” value (MCF-7 [4]; mean ± SD of triplicate) is reported as 18,524 ± 659 and the “Cell Proliferation MCF-7a %” value (MCF-7a; [5]) is reported as 100%. The “Cell Proliferation MCF-7a Cell Count” value (MCF-7a; mean ± SD of triplicate) was 20,776 ± 600.
